Assay results taken from patent US20250243196A1, “CITRON KINASE INHIBITORS” (The Cleveland Clinic Foundation, priority 2021, published 2025).

Legend:
Experiment in all cases: KinaseProfiler panel
Format in all cases: biochemical
Settings in all cases: activity remaining
TGFBR2(h) = TGFBR2(h) (Homo sapiens (Human), UniProt P37173); parameters: dose or concentration left out as unconfirmed
CaMKIIγ(h) = CaMKIIγ(h) (Homo sapiens (Human), UniProt Q13555); parameters: dose or concentration left out as unconfirmed
PDHK4(h) = PDHK4(h) (Homo sapiens (Human), UniProt Q16654); parameters: dose or concentration left out as unconfirmed
Itk(h) = Itk(h) (Homo sapiens (Human), UniProt Q08881); parameters: dose or concentration left out as unconfirmed
ULK1(h) = ULK1(h) (Homo sapiens (Human), UniProt O75385); parameters: dose or concentration left out as unconfirmed
BrSK1(h) = BrSK1(h) (Homo sapiens (Human), UniProt Q8TDC3); parameters: dose or concentration left out as unconfirmed
Rsk4(h) = Rsk4(h) (Homo sapiens (Human), UniProt Q9UK32)
FGFR2(h) = FGFR2(h) (Homo sapiens (Human), UniProt P21802); parameters: dose or concentration left out as unconfirmed
PIP5K1g(h) = PIP5K1g(h) (Homo sapiens (Human), UniProt O60331)
NLK(h) = NLK(h) (Homo sapiens (Human), UniProt Q9UBE8)
PRP4(h) = PRP4(h) (Homo sapiens (Human), UniProt Q13523); parameters: dose or concentration left out as unconfirmed
CDK5/p35(h) = CDK5/p35(h) (Homo sapiens (Human), UniProt Q00535); parameters: dose or concentration left out as unconfirmed
PRAK(h) = PRAK(h) (Homo sapiens (Human), UniProt Q8IW41); parameters: dose or concentration left out as unconfirmed
ZAK(h) = ZAK(h) (Homo sapiens (Human), UniProt Q9NYL2); parameters: dose or concentration left out as unconfirmed
ALK2(h) = ALK2(h) (Homo sapiens (Human), UniProt Q04771); parameters: dose or concentration left out as unconfirmed
MARK1(h) = MARK1(h) (Homo sapiens (Human), UniProt Q9P0L2); parameters: dose or concentration left out as unconfirmed
MARK1(h), sequence (Q9P0L2 whole entry): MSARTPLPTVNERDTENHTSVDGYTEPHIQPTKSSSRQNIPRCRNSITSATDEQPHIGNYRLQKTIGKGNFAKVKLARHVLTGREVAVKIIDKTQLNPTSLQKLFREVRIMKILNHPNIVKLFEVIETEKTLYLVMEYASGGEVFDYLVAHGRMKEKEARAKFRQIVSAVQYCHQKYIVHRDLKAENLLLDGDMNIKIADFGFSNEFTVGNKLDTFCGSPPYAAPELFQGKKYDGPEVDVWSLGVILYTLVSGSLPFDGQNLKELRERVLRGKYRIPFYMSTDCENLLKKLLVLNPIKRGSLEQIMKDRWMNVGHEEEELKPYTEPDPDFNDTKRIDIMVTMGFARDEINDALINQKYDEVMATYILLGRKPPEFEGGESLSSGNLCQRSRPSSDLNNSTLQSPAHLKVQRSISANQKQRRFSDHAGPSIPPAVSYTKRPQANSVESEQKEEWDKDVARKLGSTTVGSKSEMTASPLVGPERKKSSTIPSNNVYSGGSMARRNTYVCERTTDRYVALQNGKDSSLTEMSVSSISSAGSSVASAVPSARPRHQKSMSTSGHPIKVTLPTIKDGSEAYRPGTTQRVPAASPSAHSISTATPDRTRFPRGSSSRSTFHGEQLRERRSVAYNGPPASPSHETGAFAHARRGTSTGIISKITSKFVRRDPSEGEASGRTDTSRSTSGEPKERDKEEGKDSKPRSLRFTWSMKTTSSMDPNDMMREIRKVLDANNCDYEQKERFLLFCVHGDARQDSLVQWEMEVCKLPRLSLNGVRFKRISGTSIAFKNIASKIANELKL

ULK2(h) = ULK2(h) (Homo sapiens (Human), UniProt Q8IYT8); parameters: dose or concentration left out as unconfirmed
CaMKIIδ(h) = CaMKIIδ(h) (Homo sapiens (Human), UniProt Q13557); parameters: dose or concentration left out as unconfirmed
CaMKIIδ(h), sequence (Q13557 whole entry): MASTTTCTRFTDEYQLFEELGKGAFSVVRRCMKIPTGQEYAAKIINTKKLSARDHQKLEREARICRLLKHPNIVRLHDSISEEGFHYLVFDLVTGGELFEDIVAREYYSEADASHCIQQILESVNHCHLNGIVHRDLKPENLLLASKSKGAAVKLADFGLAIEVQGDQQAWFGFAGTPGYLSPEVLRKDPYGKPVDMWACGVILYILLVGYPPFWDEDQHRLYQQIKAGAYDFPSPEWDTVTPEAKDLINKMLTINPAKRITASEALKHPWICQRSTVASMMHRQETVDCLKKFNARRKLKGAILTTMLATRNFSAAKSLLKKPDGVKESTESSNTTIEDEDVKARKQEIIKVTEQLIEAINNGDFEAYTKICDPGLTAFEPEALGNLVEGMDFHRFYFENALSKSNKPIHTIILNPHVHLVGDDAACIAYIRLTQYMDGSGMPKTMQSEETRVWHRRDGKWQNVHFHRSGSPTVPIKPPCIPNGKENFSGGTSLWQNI

FAK(h) = FAK(h) (Homo sapiens (Human), UniProt Q05397); parameters: dose or concentration left out as unconfirmed
PDHK2(h) = PDHK2(h) (Homo sapiens (Human), UniProt Q15119); parameters: dose or concentration left out as unconfirmed
ASK1(h) = ASK1(h) (Homo sapiens (Human), UniProt Q99683); parameters: dose or concentration left out as unconfirmed
PKBα(h) = PKBα(h) (Homo sapiens (Human), UniProt P31749); parameters: dose or concentration left out as unconfirmed
PKBα(h), sequence (P31749 whole entry): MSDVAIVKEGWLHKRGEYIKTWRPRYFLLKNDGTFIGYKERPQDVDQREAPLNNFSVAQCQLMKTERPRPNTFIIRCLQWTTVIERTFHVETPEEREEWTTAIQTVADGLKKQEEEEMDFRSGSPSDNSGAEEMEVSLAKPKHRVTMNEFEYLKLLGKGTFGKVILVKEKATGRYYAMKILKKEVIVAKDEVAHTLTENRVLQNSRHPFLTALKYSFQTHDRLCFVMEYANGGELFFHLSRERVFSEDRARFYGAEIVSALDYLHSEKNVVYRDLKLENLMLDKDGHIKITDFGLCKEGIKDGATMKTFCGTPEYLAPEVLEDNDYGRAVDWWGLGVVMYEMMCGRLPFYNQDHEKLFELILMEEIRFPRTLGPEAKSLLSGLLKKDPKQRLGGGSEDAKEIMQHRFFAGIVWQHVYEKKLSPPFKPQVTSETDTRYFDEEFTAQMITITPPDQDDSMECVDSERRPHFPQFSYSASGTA

LATS1(h) = LATS1(h) (Homo sapiens (Human), UniProt O95835); parameters: dose or concentration left out as unconfirmed
LATS1(h), sequence (O95835 whole entry): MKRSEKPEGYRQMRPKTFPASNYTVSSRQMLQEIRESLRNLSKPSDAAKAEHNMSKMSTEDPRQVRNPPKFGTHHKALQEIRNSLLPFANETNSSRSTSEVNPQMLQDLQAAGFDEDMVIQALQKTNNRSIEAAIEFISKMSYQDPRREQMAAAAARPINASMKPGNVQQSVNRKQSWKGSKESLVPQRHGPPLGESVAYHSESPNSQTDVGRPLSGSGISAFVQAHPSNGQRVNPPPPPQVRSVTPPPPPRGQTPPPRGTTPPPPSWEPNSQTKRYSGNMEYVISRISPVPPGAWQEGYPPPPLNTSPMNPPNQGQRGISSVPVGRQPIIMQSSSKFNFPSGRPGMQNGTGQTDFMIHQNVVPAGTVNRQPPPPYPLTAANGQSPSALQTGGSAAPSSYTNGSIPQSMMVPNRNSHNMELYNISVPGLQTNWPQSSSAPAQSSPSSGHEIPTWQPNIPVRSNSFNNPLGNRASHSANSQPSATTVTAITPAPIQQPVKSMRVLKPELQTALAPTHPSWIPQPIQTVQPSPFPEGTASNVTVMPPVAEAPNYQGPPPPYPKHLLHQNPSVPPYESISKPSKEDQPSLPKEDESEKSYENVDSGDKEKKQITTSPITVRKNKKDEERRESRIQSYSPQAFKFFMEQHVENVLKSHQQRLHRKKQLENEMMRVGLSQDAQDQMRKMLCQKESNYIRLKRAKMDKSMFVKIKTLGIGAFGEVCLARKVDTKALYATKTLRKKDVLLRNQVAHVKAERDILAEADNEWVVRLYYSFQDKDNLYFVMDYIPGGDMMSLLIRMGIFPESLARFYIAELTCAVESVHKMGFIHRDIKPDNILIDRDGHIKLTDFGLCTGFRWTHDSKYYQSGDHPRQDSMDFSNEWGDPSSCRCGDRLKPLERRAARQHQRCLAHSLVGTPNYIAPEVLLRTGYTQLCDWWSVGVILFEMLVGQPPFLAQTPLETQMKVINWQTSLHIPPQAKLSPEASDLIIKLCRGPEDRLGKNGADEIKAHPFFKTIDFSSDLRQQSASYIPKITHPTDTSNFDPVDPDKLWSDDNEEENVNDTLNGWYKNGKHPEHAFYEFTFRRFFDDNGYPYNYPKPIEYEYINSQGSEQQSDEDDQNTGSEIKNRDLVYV

Ros(h) = Ros(h) (Homo sapiens (Human), UniProt P08922); parameters: dose or concentration left out as unconfirmed
SAPK4(h) = SAPK4(h) (Homo sapiens (Human), UniProt O15264); parameters: dose or concentration left out as unconfirmed
NEK7(h) = NEK7(h) (Homo sapiens (Human), UniProt Q8TDX7); parameters: dose or concentration left out as unconfirmed
MAP4K4(h) = MAP4K4(h) (Homo sapiens (Human), UniProt O95819); parameters: dose or concentration left out as unconfirmed
MAP4K4(h), sequence (O95819 whole entry): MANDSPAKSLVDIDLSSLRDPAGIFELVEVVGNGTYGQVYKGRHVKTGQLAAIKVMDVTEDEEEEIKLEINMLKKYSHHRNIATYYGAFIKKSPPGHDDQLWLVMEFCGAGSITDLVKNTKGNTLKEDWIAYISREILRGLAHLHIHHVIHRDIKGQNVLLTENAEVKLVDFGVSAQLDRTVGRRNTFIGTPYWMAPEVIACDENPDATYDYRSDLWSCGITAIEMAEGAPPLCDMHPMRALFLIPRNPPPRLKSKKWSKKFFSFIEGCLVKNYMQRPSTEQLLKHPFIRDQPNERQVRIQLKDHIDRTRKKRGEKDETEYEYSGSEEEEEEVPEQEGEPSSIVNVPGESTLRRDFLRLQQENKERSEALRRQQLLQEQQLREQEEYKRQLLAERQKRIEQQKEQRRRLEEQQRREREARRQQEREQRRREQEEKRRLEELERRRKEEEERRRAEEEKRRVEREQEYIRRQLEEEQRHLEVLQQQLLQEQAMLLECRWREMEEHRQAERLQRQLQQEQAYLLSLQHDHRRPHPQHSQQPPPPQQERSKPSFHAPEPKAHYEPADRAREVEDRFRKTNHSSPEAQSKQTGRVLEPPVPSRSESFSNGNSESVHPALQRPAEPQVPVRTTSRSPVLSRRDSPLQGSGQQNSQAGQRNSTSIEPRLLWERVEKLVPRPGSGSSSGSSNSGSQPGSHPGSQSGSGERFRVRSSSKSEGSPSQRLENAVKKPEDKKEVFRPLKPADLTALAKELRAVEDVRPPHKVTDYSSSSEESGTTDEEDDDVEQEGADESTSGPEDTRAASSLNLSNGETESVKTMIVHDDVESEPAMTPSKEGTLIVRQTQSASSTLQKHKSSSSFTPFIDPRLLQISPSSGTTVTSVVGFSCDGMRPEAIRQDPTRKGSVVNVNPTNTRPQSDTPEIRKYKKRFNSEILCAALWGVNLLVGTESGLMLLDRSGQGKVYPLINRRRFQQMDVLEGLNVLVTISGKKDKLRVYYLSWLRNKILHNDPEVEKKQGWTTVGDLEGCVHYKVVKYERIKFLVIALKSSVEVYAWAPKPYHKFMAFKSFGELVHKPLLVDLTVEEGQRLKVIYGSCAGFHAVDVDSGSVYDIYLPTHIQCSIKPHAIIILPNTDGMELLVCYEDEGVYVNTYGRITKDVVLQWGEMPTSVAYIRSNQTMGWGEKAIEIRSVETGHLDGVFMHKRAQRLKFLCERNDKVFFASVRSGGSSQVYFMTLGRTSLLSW

IRE1(h) = IRE1(h) (Homo sapiens (Human), UniProt O75460); parameters: dose or concentration left out as unconfirmed
NEK2(h) = NEK2(h) (Homo sapiens (Human), UniProt P51955); parameters: dose or concentration left out as unconfirmed
PKCα(h) = PKCα(h) (Homo sapiens (Human), UniProt P17252); parameters: dose or concentration left out as unconfirmed
Rsk3(h) = Rsk3(h) (Homo sapiens (Human), UniProt Q15349); parameters: dose or concentration left out as unconfirmed
DDR2(h) = DDR2(h) (Homo sapiens (Human), UniProt Q16832); parameters: dose or concentration left out as unconfirmed
DDR2(h), sequence (Q16832 22-855): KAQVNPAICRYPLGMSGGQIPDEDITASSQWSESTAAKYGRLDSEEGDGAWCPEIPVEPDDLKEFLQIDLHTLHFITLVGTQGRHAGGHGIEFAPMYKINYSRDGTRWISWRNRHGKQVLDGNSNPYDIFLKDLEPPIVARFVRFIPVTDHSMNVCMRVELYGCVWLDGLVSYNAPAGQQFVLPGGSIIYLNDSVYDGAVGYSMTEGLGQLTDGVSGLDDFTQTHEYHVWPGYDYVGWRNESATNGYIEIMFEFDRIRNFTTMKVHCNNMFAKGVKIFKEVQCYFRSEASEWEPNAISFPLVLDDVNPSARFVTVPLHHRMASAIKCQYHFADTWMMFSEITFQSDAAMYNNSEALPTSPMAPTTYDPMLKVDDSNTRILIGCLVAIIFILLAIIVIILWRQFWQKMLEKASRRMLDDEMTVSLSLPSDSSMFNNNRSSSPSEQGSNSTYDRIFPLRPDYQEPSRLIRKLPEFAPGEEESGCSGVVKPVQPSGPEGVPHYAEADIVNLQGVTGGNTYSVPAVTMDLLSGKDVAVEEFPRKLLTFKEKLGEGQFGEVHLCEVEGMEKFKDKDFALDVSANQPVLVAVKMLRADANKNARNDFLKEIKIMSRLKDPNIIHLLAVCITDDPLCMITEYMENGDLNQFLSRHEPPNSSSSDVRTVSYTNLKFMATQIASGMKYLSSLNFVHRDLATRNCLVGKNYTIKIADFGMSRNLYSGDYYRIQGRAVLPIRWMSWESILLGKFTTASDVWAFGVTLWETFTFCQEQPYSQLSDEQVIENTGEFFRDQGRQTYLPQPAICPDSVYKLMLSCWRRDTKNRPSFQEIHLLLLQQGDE

STK33(h) = STK33(h) (Homo sapiens (Human), UniProt Q9BYT3); parameters: dose or concentration left out as unconfirmed

Cc1cc2c(-c3ccc(NC(=O)[C@H](N)CC(C)(C)C)cc3C)ccnc2[nH]1 [Compound F-90, (2R)-2-Amino-4,4-dimethyl-N-[3-methyl-4-(2-methyl-1H-pyrrolo[2,3-b]pyridin-4-yl)phenyl]pentanamide]
% Activity (TGFBR2(h)): 96% | % Activity (CaMKIIγ(h)): 106% | % Activity (PDHK4(h)): 101% | % Activity (Itk(h)): 86% | % Activity (ULK1(h)): 95% | % Activity (BrSK1(h)): 96% | % Activity (Rsk4(h)): 101% | % Activity (FGFR2(h)): 89% | % Activity (PIP5K1g(h)): 102% | % Activity (NLK(h)): 98% | % Activity (PRP4(h)): 100% | % Activity (CDK5/p35(h)): 79% | % Activity (PRAK(h)): 107% | % Activity (ZAK(h)): 83% | % Activity (ALK2(h)): 122% | % Activity (MARK1(h)): 106% | % Activity (ULK2(h)): 98% | % Activity (CaMKIIδ(h)): 96% | % Activity (FAK(h)): 96% | % Activity (PDHK2(h)): 87% | % Activity (ASK1(h)): 100% | % Activity (PKBα(h)): 87% | % Activity (LATS1(h)): 90% | % Activity (Ros(h)): 97% | % Activity (SAPK4(h)): 94% | % Activity (NEK7(h)): 88% | % Activity (MAP4K4(h)): 101% | % Activity (IRE1(h)): 99% | % Activity (NEK2(h)): 118% | % Activity (PKCα(h)): 92% | % Activity (Rsk3(h)): 112% | % Activity (DDR2(h)): 85% | % Activity (STK33(h)): 98%
